Data: PubChem BioAssay AID2060487 (Molecular Pharmacology Branch, DTP, NCI, 2025)

Test system: 997537-175-T-J1-PDC complex spheroid viability
Test: Anticancer human tumor 997537-175-T-J1-PDC patient-derived colon adenocarcinoma cell line growth inhibition [GQUAD]
Settings: for IC50: curve of first compound; for viability, T/C: stronger effect = lower value
How it was run: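 Multi-cell-type spheroids of tumor cells with HUVEC and mesenchymal stem cells, treated with drug combinations. Concentrations descend in half-log steps from near clinical Cmax, or from 10 microM where Cmax is unknown; viability read-out.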

[1] = second compound 0.0316 µM, first compound 0.0316 µM
[2] = second compound 0.0316 µM, first compound 0.1 µM
[3] = second compound 0.0316 µM, first compound 0.316 µM
[4] = second compound 0.0316 µM, first compound 1 µM
[5] = second compound 0.0316 µM, first compound 3.16 µM
[6] = second compound 0.0316 µM, first compound 10 µM
[7] = second compound 0.1 µM, first compound 0.0316 µM
[8] = second compound 0.1 µM, first compound 0.1 µM
[9] = second compound 0.1 µM, first compound 0.316 µM
[10] = second compound 0.1 µM, first compound 1 µM
[11] = second compound 0.1 µM, first compound 3.16 µM
[12] = second compound 0.1 µM, first compound 10 µM
[13] = second compound 0.316 µM, first compound 0.0316 µM
[14] = second compound 0.316 µM, first compound 0.1 µM
[15] = second compound 0.316 µM, first compound 0.316 µM
[16] = second compound 0.316 µM, first compound 1 µM
[17] = second compound 0.316 µM, first compound 3.16 µM
[18] = second compound 0.316 µM, first compound 10 µM
[19] = second compound 1 µM, first compound 0.0316 µM
[20] = second compound 1 µM, first compound 0.1 µM
[21] = second compound 1 µM, first compound 0.316 µM
[22] = second compound 1 µM, first compound 1 µM
[23] = second compound 1 µM, first compound 3.16 µM
[24] = second compound 1 µM, first compound 10 µM
[25] = second compound 3.16 µM, first compound 0.0316 µM
[26] = second compound 3.16 µM, first compound 0.1 µM
[27] = second compound 3.16 µM, first compound 0.316 µM
[28] = second compound 3.16 µM, first compound 1 µM
[29] = second compound 3.16 µM, first compound 3.16 µM
[30] = second compound 3.16 µM, first compound 10 µM
[31] = second compound 10 µM, first compound 0.0316 µM
[32] = second compound 10 µM, first compound 0.1 µM
[33] = second compound 10 µM, first compound 0.316 µM
[34] = second compound 10 µM, first compound 1 µM
[35] = second compound 10 µM, first compound 3.16 µM
[36] = second compound 10 µM, first compound 10 µM
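Further: spheroids exposed to the agents for 7 days.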
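Wherever viability, T/C is given: 100% = DMSO vehicle control viability.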

Q: `COc1ncnc(C2CC2)c1-c1ncc2cnn(Cc3ccc(-c4nc(C(F)(F)F)cn4C(C)C)cc3)c2n1` + Cc1[nH]c2ccc(F)cc2c1-c1nc2c3cccnc3c3ncccc3c2[nH]1 was tested. Which IC50 (second compound 0.0316 µM) did it give?
A: The IC50 was 9.19 µM.

Q: And the IC50 (second compound 0.1 µM)?
A: Its IC50 is greater than 10 µM.

Q: And the IC50 (second compound 0.316 µM)?
A: Its IC50 is greater than 10 µM.

Q: And the IC50 (second compound 1 µM)?
A: Its IC50 is 9.26 µM.

Q: And the IC50 (second compound 3.16 µM)?
A: The IC50 was 8.15 µM.

Q: What about the IC50 (second compound 10 µM) of the same compound?
A: Its IC50 is greater than 10 µM.

Q: And the viability, T/C [1]?
A: Its viability, T/C is 100%.

Q: What about the viability, T/C [2] of the same compound?
A: The viability, T/C was 98.9%.

Q: What about the viability, T/C [3] of the same compound?
A: Its viability, T/C is 103%.

Q: And the viability, T/C [4]?
A: Its viability, T/C is 93.1%.

Q: What about the viability, T/C [5] of the same compound?
A: Its viability, T/C is 98.8%.

Q: And the viability, T/C [6]?
A: The viability, T/C was 46.2%.

Q: What about the viability, T/C [7] of the same compound?
A: Its viability, T/C is 100%.

Q: What about the viability, T/C [8] of the same compound?
A: The viability, T/C was 107%.

Q: And the viability, T/C [9]?
A: The viability, T/C was 102%.

Q: What about the viability, T/C [10] of the same compound?
A: The viability, T/C was 96.3%.

Q: And the viability, T/C [11]?
A: The viability, T/C was 87.9%.

Q: And the viability, T/C [12]?
A: The viability, T/C was 70.5%.

Q: What about the viability, T/C [13] of the same compound?
A: Its viability, T/C is 104%.

Q: And the viability, T/C [14]?
A: Its viability, T/C is 101%.

Q: And the viability, T/C [15]?
A: The viability, T/C was 100%.

Q: And the viability, T/C [16]?
A: Its viability, T/C is 96.7%.

Q: What about the viability, T/C [17] of the same compound?
A: The viability, T/C was 91.8%.

Q: What about the viability, T/C [18] of the same compound?
A: The viability, T/C was 50.9%.

Q: What about the viability, T/C [19] of the same compound?
A: The viability, T/C was 91.7%.

Q: And the viability, T/C [20]?
A: Its viability, T/C is 103%.

Q: And the viability, T/C [21]?
A: Its viability, T/C is 101%.

Q: What about the viability, T/C [22] of the same compound?
A: The viability, T/C was 93%.

Q: What about the viability, T/C [23] of the same compound?
A: Its viability, T/C is 92.8%.

Q: And the viability, T/C [24]?
A: The viability, T/C was 46.8%.

Q: What about the viability, T/C [25] of the same compound?
A: The viability, T/C was 83.1%.

Q: And the viability, T/C [26]?
A: Its viability, T/C is 86.5%.

Q: And the viability, T/C [27]?
A: Its viability, T/C is 87.2%.

Q: And the viability, T/C [28]?
A: The viability, T/C was 84.2%.

Q: What about the viability, T/C [29] of the same compound?
A: Its viability, T/C is 76.7%.

Q: And the viability, T/C [30]?
A: Its viability, T/C is 44.2%.

Q: And the viability, T/C [31]?
A: Its viability, T/C is 85.3%.

Q: And the viability, T/C [32]?
A: Its viability, T/C is 87.8%.

Q: What about the viability, T/C [33] of the same compound?
A: The viability, T/C was 89.1%.

Q: And the viability, T/C [34]?
A: Its viability, T/C is 89.5%.

Q: And the viability, T/C [35]?
A: Its viability, T/C is 72.9%.

Q: What about the viability, T/C [36] of the same compound?
A: Its viability, T/C is 59.6%.

Q: What does the source list for `CC(C)n1c(=O)n(C)c2cnc3cc(F)c(-c4ccc(OCCCN5CCCCC5)nc4)cc3c21` + Cc1cnc(CNC(=O)c2c(=O)c3ccc(N4CCCN(C)CC4)nc3n3c2sc2ccccc23)cn1?
A: IC50 (second compound 0.0316 µM): > 10 µM; IC50 (second compound 0.1 µM): > 10 µM; IC50 (second compound 0.316 µM): > 10 µM; IC50 (second compound 1 µM): > 10 µM; IC50 (second compound 3.16 µM): > 10 µM; IC50 (second compound 10 µM): > 10 µM; viability, T/C [1]: 112%; viability, T/C [2]: 91.3%; viability, T/C [3]: 104%; viability, T/C [4]: 82.3%; viability, T/C [5]: 91.9%; viability, T/C [6]: 92.5%; viability, T/C [7]: 95%; viability, T/C [8]: 95.9%; viability, T/C [9]: 91.5%; viability, T/C [10]: 82.4%; viability, T/C [11]: 82.6%; viability, T/C [12]: 90.9%; viability, T/C [13]: 101%; viability, T/C [14]: 74%; viability, T/C [15]: 101%; viability, T/C [16]: 84.8%; viability, T/C [17]: 108%; viability, T/C [18]: 93.3%; viability, T/C [19]: 95.6%; viability, T/C [20]: 113%; viability, T/C [21]: 111%; viability, T/C [22]: 80%; viability, T/C [23]: 114%; viability, T/C [24]: 105%; viability, T/C [25]: 87%; viability, T/C [26]: 104%; viability, T/C [27]: 108%; viability, T/C [28]: 105%; viability, T/C [29]: 122%; viability, T/C [30]: 110%; viability, T/C [31]: 87.8%; viability, T/C [32]: 93.4%; viability, T/C [33]: 106%; viability, T/C [34]: 116%; viability, T/C [35]: 98.5%; viability, T/C [36]: 107%
